{"source": "patent US9040717B2", "about": "“Pyrazole-amide compounds and pharmaceutical use thereof” (JAPAN TOBACCO INC., priority 2013, dated 2015)", "key": {"[1]": {"tested_on": "adipose tissue PDH activity", "test": "Ex vivo PDH activation assay, adipose tissue", "assay_type": "in vivo, Sprague-Dawley rats", "details": "non-fasting SD rats, vehicle 31 ± 10, mean ± S.D. (n = 3)", "description": "(§1) The action of test compound on tissue PDH activity was evaluated. NADH production was detected via p-iodonitrotetrazolium violet (INT)-coupled system to measure PDH activity.\n(§2) Normal male Sprague-Dawley rats were randomly allocated to the vehicle group and the test compound groups. The vehicle (0.5% aqueous methylcellulose solution, 5 mL/kg) or the test compound was orally administered to the rats. At 5 or 20 hr after administration, the rats were anesthetized with an intraperitoneal injection of sodium pentobarbital (60 mg/kg), and liver slices and epididymal adipose tissues were collected.\n(§3) To the adipose tissues were rapidly added 3 volumes of an ice-cold homogenization buffer, and the mixtures were homogenized using a Polytron homogenizer. The homogenates were centrifuged at 600×g, 4° C. for 10 min to obtain the supernatant. The supernatants were centrifuged at 16,000×g, 4° C. for 10 min to collect the precipitates. The precipitates were washed by resuspension in the homogenization buffer (1 mL) and centrifuged in the same manner. The precipitates were frozen with liquid nitrogen and stored at −80° C. as the adipose tissue mitochondrial fraction.\n(§4) The mitochondrial fractions were thawed and suspended with the sample buffer (0.25 mol/L sucrose, 20 mmol/L tris(hydroxymethyl)aminomethane hydrochloride (pH 7.5), 50 mmol/L potassium chloride, and 1 mL/L 4-(1,1,3,3-tetramethylbutyl)phenyl-polyethylene glycol (Triton X-100)). Active PDH activity (PDHa activity) and total PDH activity (PDHt activity) were measured to evaluate the PDH activity. For the measurement of the PDHt activity, equal amounts of the mitochondrial suspension and the activation buffer (0.25 mol/L sucrose, 20 mmol/L tris(hydroxymethyl)aminomethane hydrochloride (pH 7.5), 50 mmol/L potassium chloride, 1 mL/L Triton X-100, 4 mmol/L calcium chloride, 40 mmol/L magnesium chloride, 10 mmol/L sodium dichloroacetate) were mixed, and the mixtures were incubated at 37° C. for 10 min. Forty microliters of the mitochondrial suspensions diluted with a sample buffer were added to a 96-well microplate for activity measurement and blank measurement. Then 180 μL of the reaction mixture (0.056 mmol/L potassium phosphate buffer (pH 7.5), 5.6 mmol/L DL-carnitine, 2.8 mmol/L NAD, 0.22 mmol/L thiamin pyrophosphate, 0.11 mmol/L Coenzyme A, 1.1 mL/L Triton X-100, 1.1 mmol/L magnesium chloride, 1.1 g/L bovine serum albumin, 0.67 mmol/L INT, 7.2 μmol/L phenazine methosulfate, 28 mmol/L sodium oxamate) was added to each well, and then 20 μL of 50 mmol/L sodium pyruvate for activity measurement or water for blank measurement were added. The mixtures were incubated at room temperature under shading. The absorbances at 500-750 nm, which were attributable to reduction of INT, the final electron acceptor, were measured using a microplate reader over time and the changes in the absorbance were calculated. The PDH activity was calculated by subtraction of the change in absorbance of the blank well from that of the activity measurement well. The percentage of the PDHa activity to the PDHt activity was calculated and taken as an index of the PDH activation."}, "liver PDH activity": {"tested_on": "liver PDH activity", "test": "Ex vivo PDH activation assay, liver", "assay_type": "in vivo, Sprague-Dawley rats", "details": "non-fasting SD rats, vehicle 13 ± 3, mean ± S.D. (n = 3)", "description": "as §1, §2\nas §3, with “liver slices” for “adipose tissues”, “9” for “3”, “of” for “of an”, “buffer (0.25 mol/L sucrose, 5 mmol/L tris(hydroxymethyl)aminomethane hydrochloride (pH 7.5), 2 mmol/L EDTA),” for “buffer,”, “supernatants (1 mL)” for “supernatants”, “liver” for “adipose tissue”\nas §4"}, "human PDHK1 (hPDHK1)": {"target": "human PDHK1 (hPDHK1) (Homo sapiens (Human), UniProt Q15118)", "sequence (Q15118 29-436)": "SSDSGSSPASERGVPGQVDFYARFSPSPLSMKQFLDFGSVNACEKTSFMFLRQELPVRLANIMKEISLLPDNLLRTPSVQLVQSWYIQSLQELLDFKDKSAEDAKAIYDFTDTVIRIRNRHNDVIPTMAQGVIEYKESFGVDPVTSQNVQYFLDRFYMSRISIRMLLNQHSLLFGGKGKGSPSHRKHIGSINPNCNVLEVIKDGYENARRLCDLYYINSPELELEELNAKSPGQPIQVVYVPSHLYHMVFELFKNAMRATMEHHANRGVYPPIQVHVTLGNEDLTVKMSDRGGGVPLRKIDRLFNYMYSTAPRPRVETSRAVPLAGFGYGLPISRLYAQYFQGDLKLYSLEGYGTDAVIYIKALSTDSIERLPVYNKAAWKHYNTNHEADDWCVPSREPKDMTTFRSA", "test": "Inhibitory action of PDHK1 activity in vitro (residual PDH activity after kinase reaction)", "assay_type": "biochemical", "description": "(§5) The inhibitory action of PDHK activity was assessed indirectly by measuring the residual PDH activity after kinase reaction in the presence of a test compound.\nThe recombinant construct was transformed into Escherichia coli (DH5α-TOYOBO). The recombinant clones were identified, and plasmid DNA was isolated and subjected to the DNA sequence analysis. One clone which had the expected nucleic acid sequence was selected for expression work.\nThe Escherichia coli were grown to an optical density 0.6 ([…]) at 30° C. Protein expression was induced by the addition of 500 μmol/L isopropyl-β-thiogalactopyranoside. The Escherichia coli were cultured at 30° C. for 5 hr and harvested by centrifugation. Resuspension of the Escherichia coli paste was disrupted by a microfluidizer.\nThe eluted fractions containing FLAG-Tagged protein were pooled, dialyzed against 20 mmol/L HEPES-NaOH, 150 mmol/L sodium chloride, 0.5 mmol/L ethylenediamine tetraacetic acid (EDTA), 1% ethylene glycol, and 0.1% Pluronic F-68 (pH 8.0), and preserved at −80° C.\nThe mixture was incubated at room temperature for 90 min, and the residual PDH activity was measured.\nThe absorbance at 340 nm before and after PDH reaction was measured using a microplate reader to detect NADH produced by the PDH reaction."}, "human PDHK2 (hPDHK2)": {"target": "human PDHK2 (hPDHK2) (Homo sapiens (Human), UniProt Q15119)", "test": "Inhibitory action of PDHK2 activity in vitro (residual PDH activity after kinase reaction)", "assay_type": "biochemical", "details": "monohydrate", "description": "as §5\nIn the case of human PDHK2 (hPDHK2, Genbank Accession No. BC040478.1), modified hPDHK2 cDNA wherein FLAG-Tag sequence was added to the N terminus of hPDHK2 cDNA clone (pReceiver-M01/PDK2-GeneCopoeia) was prepared by PCR and cloned into a vector (pET17b-Novagen). The recombinant construct was transformed into Escherichia coli (DH5α-TOYOBO). The recombinant clones were identified, and plasmid DNA was isolated and subjected to the DNA sequence analysis. One clone which had the expected nucleic acid sequence was selected for expression work.\nFor expression of hPDHK2 activity, Escherichia coli strain BL21(DE3) cells (Novagen) were transformed with the pET17b vector containing modified hPDHK2 cDNA. The Escherichia coli were grown to an optical density 0.6 ([…]) at 30° C. Protein expression was induced by the addition of 500 μmol/L isopropyl-β-thiogalactopyranoside. The Escherichia coli were cultured at 30° C. for 5 hr and harvested by centrifugation. Resuspension of the Escherichia coli paste was disrupted by a microfluidizer. FLAG-Tagged protein was purified using FLAG affinity gel. […]\n0.05 U/mL PDH and 0.8 μg/mL hPDHK2 were mixed in a buffer (50 mmol/L 3-morpholinopropanesulfonic acid (pH 7.0), 20 mmol/L dipotassium hydrogen phosphate, 60 mmol/L potassium chloride, 2 mmol/L magnesium chloride, 0.4 mmol/L EDTA, and 0.2% Pluronic F-68, 2 mmol/L dithiothreitol), and the mixture was incubated at 4° C. overnight to obtain a PDH/hPDHK2 complex. […] The mixture was incubated at room temperature for 90 min, and the residual PDH activity was measured. The absorbance at 340 nm before and after PDH reaction was measured using a microplate reader to detect NADH produced by the PDH reaction. The hPDHK2 inhibition rate (%) of the test compound was calculated from the formula [{(PDH activity of test compound−PDH activity of control)/PDH activity of blank−PDH activity of control)}×100]."}, "[2]": {"details": "Table 2, 5 hr after oral 3 mg/kg"}, "[3]": {"details": "Table 2, 20 hr after oral 3 mg/kg"}}}
{"smiles": "CC(C)(O)CCOc1cc(-c2cnn(C(C)(C)C(N)=O)c2)c2c(c1)[C@@](O)(C(F)(F)F)c1ccccc1-2", "note": "[Compound (2h), 2-{4-[(9R)-9-hydroxy-2-(3-hydroxy-3-methylbutyloxy)-9-(trifluoromethyl)-9H-fluoren-4-yl]-1H-pyrazol-1-yl}-2-methylpropanamide monohydrate]", "values": [{"measurement": "PDHa activity (% of PDHt activity)", "setting": "[1]; [2]", "result": "59 ± 2 % of PDHt activity"}, {"measurement": "PDHa activity (% of PDHt activity)", "setting": "[1]; [3]", "result": "44 ± 12 % of PDHt activity"}, {"measurement": "PDHa activity (% of PDHt activity)", "setting": "liver PDH activity; [2]", "result": "59 ± 6 % of PDHt activity"}, {"measurement": "PDHa activity (% of PDHt activity)", "setting": "liver PDH activity; [3]", "result": "31 ± 5 % of PDHt activity"}, {"measurement": "IC50", "setting": "human PDHK1 (hPDHK1)", "result": 6.6, "unit": "nM"}, {"measurement": "IC50", "setting": "human PDHK2 (hPDHK2)", "result": 4.9, "unit": "nM"}]}
